# Measurements published in patent publication US20260271925A1, “DYSREGULATION OF PLANKTONIC BACTERIAL METABOLISM” (Lixa Limited, priority 2023, published 2026).
# Experiments:
# K. pneumoniae WACC 790 = assay: Resazurin reduction for the evaluation of metabolic activity (Example 2, FIG. 8); type: cell-based, Klebsiella pneumoniae
# Experimental: (§1) Bacterial strains were maintained as suspensions in 20% (v/v) glycerol/Brain-Heart Infusion at −80° C.
# Aerobic respiration was measured in the presence or absence of D-Lactic acid and the presence or absence of companion antibiotics either following incubation and visual recording of the MIC, or in a separate study. For evaluation after completion of MIC determination, the entire volume of the MIC well (100 μl) was mixed by pipetting up and down, then transferred to the equivalent well of a fluorescence-absorbance suitable 96-well plate. Alternatively, cultures were pipetted together as above and incubated overnight at 37° C. in the absence of any antimicrobial compounds. […] After incubation regimes were completed for both procedures, resazurin reduction was evaluated by adding 10 μl of a 0.02% resazurin solution to every well, and incubating the plates with gentle shaking (40 rpm) for a further 90 minutes at 37° C. […]
# Following incubation, the 96-well trays were read on a fluorescence-absorbance spectrophotometer, using an excitation frequency of 565 nm and emission frequency of 590 nm. […]
# [1] = tested on: Pseudomonas aeruginosa clinical isolates from patients with cystic fibrosis; assay: Resazurin staining of planktonic cultures, metabolic activity (Example 1); type: cell-based; conditions: resorufin fluorescence; 24 clinical isolates; 24 h D-Lactic acid treatment
# Experimental: Clinical isolates of Pseudomonas aeruginosa collected from patients with cystic fibrosis were phenotyped and stored as 50% glycerol stocks at −70° C.±2° C. Clinical isolates were thawed and streaked out on blood agar plates to grow at 37° C., 5% CO2 for 12-24 hours, or until isolated colonies were large enough to sustain further culturing could be selected. Isolated colonies were looped into 5 mL of LB broth and incubated overnight at 37° C., 5% CO2 with gentle shaking to achieve stationary phase (B0).
# B0 cultures were diluted 1:1000 in Pseudomonas minimal medium (herein referred to as PMM) to achieve approximately […], then 150 μL of each diluted culture was transferred to wells of a 96 well mitrotitre tray and incubated overnight at 37° C., 5% CO2. D-Lactic acid was then applied by adding 50 μL of appropriately stock solutions diluted in PMM (or vehicle-only in the case of control wells) and incubating for a further 24 hours at 37° C., 5% CO2. 20 μL culture supernatant was then transferred to wells containing 180 μL fresh PMM, culture density determined by measuring the absorbance at 595 nm (using a ThermoFisher Multiskan FC plate reader). […]
# Viable cells reduce the blue resazurin dye to the pink, fluorescent resorufin form. Following incubation fluorescence was quantified by excitation wavelength of 540 nm and an emission wavelength of 590 nm using Enspire microplate reader. […]
# [2] = tested on: P. aeruginosa strain WACC91; assay: Resazurin reduction of planktonic cultures in M63 (glucose), D- versus L-Lactic acid (Example 3); type: cell-based, Pseudomonas aeruginosa; conditions: resorufin fluorescence; compared to vehicle only treatment; M63 (glucose); 24 h
# Experimental: . Viable cells reduce the blue resazurin dye to the pink, fluorescent resorufin form. Following incubation fluorescence was quantified by excitation wavelength of 540 nm and an emission wavelength of 590 nm using Enspire microplate reader.
# P. aeruginosa strain WACC91 was maintained as a suspension in 20% (v/v) glycerol/Brain-Heart Infusion at −80° C. For use, a loop-full of ice was scraped from the stock and streaked for single colonies on LB media containing 1.8% agar and incubated overnight at 37° C. Isolated colonies were looped into 5 mL of LB broth and incubated at 37° C. with shaking until turbidity was greater than that of a 1.0 McFarland Standard (3-4 h).
# The broth culture was diluted in M63 minimal media containing 0.2% (w/v) glucose as the sole carbon source to a turbidity equal to a 1.0 McFarland standard using a spectrophotometer at a wavelength of 595 nm. This culture was then diluted 1:100 in M63 (glucose) and 100 μL together with an additional 50 μL was transferred to each well of a 96 well microtitre tray and incubated overnight at 37° C., 5% CO2. D-Lactic acid, L-Lactic acid, or vehicle only (sterile H2O) was then applied by adding 50 μL of appropriate stock solutions diluted in M63 (glucose) and incubating for a further 24 hours at 37° C., 5% CO2. Culture metabolic activity was then determined using resazurin reduction as described above in Example 1.
# [3] = tested on: bioluminescent col^R E. coli Xen14; assay: Murine peritoneal-sepsis model, CD1 male mice challenged IP (Example 6); type: in vivo, Escherichia coli; conditions: for survival of infected mice: up to 72 h post-infection, 8 mice per group, Sodium D-Lactate 1000 mg/kg single oral dose, colistin 1 mg/kg IP at 0, 4, 8 and 12 h
# Experimental: Bioluminescent col^R E. coli Xen14 was streaked onto a 5% sheep blood agar plate containing 30 μg/ml kanamycin and incubated overnight (o/n) at 37° C. in normal air. The plate was first checked on a Lumina XRMS Ill machine to ensure bioluminescence, then a loopful of the o/n growth was suspended into 10 mL Luria Bertani (LB) broth to A600 nm=0.05. The suspension was incubated at 37° C. for approx. 3 h until A600 nm=0.5 (equivalent to approx. 5×10^8 CFU/mL). The bacterial suspension was centrifuged at 4,000×g for 5 min, resuspended and washed twice in phosphate buffered saline (PBS, pH 7.2) resuspended again in PBS and then placed on wet ice and used for mouse infection within 10 min of preparation as described below.
# Outbred Swiss male (CD1) mice, 6-7 weeks (approx. 26-33 g, 8 mice per group) obtained from the Laboratory Animal Services breeding facility of The University of Adelaide, were used in these experiments. Mice had access to food and water ad libitum. The Animal Ethics Committee of The University of Adelaide (approval number S-2022-044) reviewed and approved all animal experiments. The study was conducted in compliance with the Australian Code of Practice for the Care and Use of Animals for Scientific Purposes (8th Edition 2013) and the South Australian Animal Welfare Act 1985.
# Each mouse was challenged intraperitoneally (IP) with approx. 1×10^8 CFU of the bioluminescent col^R E. coli Xen14 in 200 μL PBS containing 3% porcine stomach mucin type Ill (Sigma Aldrich) and subjected to bioluminescence imaging in both ventral and dorsal positions on the IVIS Lumina XRMS Series Ill system while under anaesthesia. […]
# Aliquots of blood samples (approx. 50 μL) were taken by submandibular (facial vein) bleeding from individual mice in all groups at 4 h for bacterial enumeration. […] In all experiments, signals were collected from a defined region of interest and total flux intensities (photons/s) analysed using Living Image Software 4.7.3. Survival rates for the groups were recorded. […]
# S. aureus 29213 = assay: Minimum inhibitory concentration of metal salts by broth microdilution in Trypticase Soya broth (Example 4); type: cell-based, Staphylococcus aureus
# Experimental: (§2) Bacterial strains were maintained as suspensions in 20% (v/v) glycerol/Brain-Heart Infusion at −80° C. For use, a loop-full of ice was scraped from the stock and streaked for single colonies on Trypticase Soya agar containing 1.8% agar and incubated overnight at 37° C.
# (§3) A standard inoculum was prepared from broth culture. One to three colonies from an overnight agar culture plate were transferred to 5 ml of broth media and incubated at 37° C. with shaking (200 rpm) until turbidity was greater than that of a 0.5 McFarland Standard (overnight). All assays were performed in Trypticase Soya broth.
# (§4) The broth culture was diluted in broth to a turbidity equal to a 0.5 McFarland Standard using a spectrophotometer at a wavelength of 620 nm. The 0.5 McFarland Standard was further diluted 1:100 in broth to create the standard inoculum. 50 μl of this standard inoculum was dispensed into every well in the microtitre tray, except the negative controls, where 50 μl of broth was dispensed instead.
# (§5) Next, a working concentration at two times the highest target concentration for every salt (in aqueous solution) was created in broth from stock solutions. 100 μl of this working concentration was pipetted into the first well, and 50 μl of broth media into all other wells. 50 μl of the first well was pipetted out and serially diluted across all wells in the row until the final concentration in the range achieved. 50 μl from the final well was removed and discarded. This produced a concentration range where each well was double the target concentration. All agents were performed in duplicate.
# (§6) 96 well trays were incubated at 37° C. for 18±2 hours.
# S. aureus MRSA 510 = assay: as above; type: cell-based, Staphylococcus aureus
# Experimental: as §2, §3, §4, §5, §6
# S. aureus 510 (MRSA) = assay: Minimum inhibitory concentration by broth microdilution (Example 2); type: cell-based, Staphylococcus aureus; conditions: unit assumed
# Experimental: as §1
# (§7) A standard inoculum was prepared from broth culture.
# as §4
# as §5, with “antimicrobial” for “salt (in aqueous solution)”
# as §6
# S. aureus MSSA 278 = assay: as above; type: cell-based, Staphylococcus aureus; conditions: unit assumed
# Experimental: as §1, §7, §4
# as §5, with “antimicrobial” for “salt (in aqueous solution)”
# as §6
# P. aeruginosa 001-11R = assay: as above; type: cell-based, Pseudomonas aeruginosa
# Experimental: as §2, with “rich media” for “Trypticase Soya agar”, “agar (for Pseudomonas aeruginosa or Klebsiella pneumoniae, Luria-Bertani medium; for Staphylococcus aureus or Streptococcus pneumoniae, Trypticase Soy agar)” for “agar”
# A standard inoculum was prepared from broth culture. 1 to 3 colonies from an overnight agar culture plate were transferred to 5 ml of broth media and incubated at 37° C. with shaking (200 rpm) until turbidity was greater than that of a 0.5 McFarland Standard (overnight). The following broth media were used: Cation-adjusted Mueller-Hinton broth (caMHB—all strains); Roswell Park Memorial Institute medium (RPMI 1640, phenol red-free—S. aureus); Trypticase Soya Broth (TSB—S. aureus, S. pneumoniae); Todd Hewitt Broth (THB—S. pneumoniae), M63 minimal medium, supplemented with 0.2% glucose (M63—K. pneumoniae).
# as §4
# as §5, with “antimicrobial” for “salt (in aqueous solution)”
# as §6
# [4] = antibiotic + 1 mM D-Lactic acid
# [5] = antibiotic + 10 mM D-Lactic acid
molecule,measurement,setting,value
O=C(O)c1cn(C2CC2)c2cc(N3CCNCC3)c(F)cc2c1=O [Ciprofloxacin],"Relative metabolic activity, antibiotic plus D-Lactic acid versus antibiotic only",K. pneumoniae WACC 790; plus 0.1 mM D-Lactic acid,enhances metabolic activity suppression
"C[C@@H](O)C(=O)O [D-Lactic acid, (2R)-2-hydroxypropanoic acid]",inhibition of metabolic activity,[1],90%
same,inhibition of metabolic activity,[2],> 50%
C[C@@H](O)C(=O)[O-].[Na+] [Sodium D-Lactate],treatment effectiveness (protection),[3]; single oral dose of 1000 mg/kg,not protective
same,survival of infected mice,[3],succumbed to infection by 12 h post-challenge
[Zn+2] [Zn^2+],MIC D-Lactate salt,S. aureus 29213; metal ion as D-Lactate salt,4 mM
same,MIC (NO3)2 salt,S. aureus 29213; metal ion as nitrate salt,8 mM
same,MIC D-Lactate salt,S. aureus MRSA 510; metal ion as D-Lactate salt,4 mM
same,MIC (NO3)2 salt,S. aureus MRSA 510; metal ion as nitrate salt,8 mM
CO[C@H]1/C=C/O[C@@]2(C)Oc3c(C)c(O)c4c(O)c(c(/C=N/N5CCN(C)CC5)c(O)c4c3C2=O)NC(=O)/C(C)=C\C=C\[C@H](C)[C@H](O)[C@@H](C)[C@@H](O)[C@@H](C)[C@H](OC(C)=O)[C@@H]1C [rifampicin],MIC + 1 mM D-Lactic acid,S. aureus 510 (MRSA); [4],8 ng/mL
same,MIC + 10 mM D-Lactic acid,S. aureus 510 (MRSA); [5],8 ng/mL
same,MIC,S. aureus 510 (MRSA); antibiotic alone,60 ng/mL
same,MIC + 1 mM D-Lactic acid,S. aureus MSSA 278; [4],8 ng/mL
same,MIC + 10 mM D-Lactic acid,S. aureus MSSA 278; [5],8 ng/mL
same,MIC,S. aureus MSSA 278; antibiotic alone,15 ng/mL
colistin,"Relative metabolic activity, antibiotic plus D-Lactic acid versus antibiotic only",K. pneumoniae WACC 790; plus 10 mM D-Lactic acid,enhances metabolic activity suppression
same,MIC + 1 mM D-Lactic acid,P. aeruginosa 001-11R; [4],1.0
same,MIC + 10 mM D-Lactic acid,P. aeruginosa 001-11R; [5],1.0
same,MIC,P. aeruginosa 001-11R; antibiotic alone,2.0
same,survival of infected mice,[3],three out eight
